This is an account of results in patent publication US20220378816A1, “2-BENZYLIDENE HYDRAZINOADENOSINE COMPOUNDS HAVING A2A ADENOSINE RECEPTOR AGONISTIC ACTIVITY” (ACADEMY OF MILITARY MEDICAL SCIENCES, priority 2019, published 2022).

Read-outs that look alike come from different tables or passages of the source.

The target in data set [1] is T1, (human) A2A adenosine receptors (Homo sapiens, UniProt P29274).
T1 construct: purchased PerkinElmer Research Products (Boston, Mass.); host or cells: HEK-293
T1 sequence (P29274 whole entry): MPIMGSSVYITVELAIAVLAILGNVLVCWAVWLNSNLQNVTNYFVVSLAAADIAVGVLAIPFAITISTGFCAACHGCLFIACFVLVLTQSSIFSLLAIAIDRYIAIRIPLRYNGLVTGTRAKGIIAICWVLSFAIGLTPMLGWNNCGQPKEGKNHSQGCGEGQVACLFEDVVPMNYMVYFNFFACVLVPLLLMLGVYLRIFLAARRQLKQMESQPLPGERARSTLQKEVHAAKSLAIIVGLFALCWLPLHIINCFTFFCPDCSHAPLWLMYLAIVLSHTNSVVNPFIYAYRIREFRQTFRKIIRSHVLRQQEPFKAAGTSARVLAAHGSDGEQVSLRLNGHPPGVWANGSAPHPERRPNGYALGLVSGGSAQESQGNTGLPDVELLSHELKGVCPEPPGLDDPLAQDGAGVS
The data set is described as follows: Radioligand binding test ([3H]CGS21680 displacement, hA2A HEK-293 cell membranes). The note with it: for Ki: read-out: Ki (inhibition constant). The protocol:
Cell membranes stably transfected with (human) A2A adenosine receptors were prepared in HEK-293 cells. The cell membranes were obtained from PerkinElmer Research Products (Boston, Mass.).
The A2A adenosine receptors used were all expressed in the cell membranes. […] (final 25 nM) was added to the diluted cell membrane, and mixed well. 50 μL of the prepared dilution solution of cell membrane was transferred to the 384-well Opti-plate containing compound and incubated at 25° C. for 90 minutes. 100 μL of 0.5% Polyethyleneimine solution (PEI) was added to […]-96 GF/B filter plate, and soaked for 90 minutes at 4° C., then 500 μL of washing buffer/well (50 mM Tris-HCl pH 7.4, 154 mM NaCl) was transferred with Cell Harvester to wash the […]-96 GF/B filter plate twice. The mixed system in the Opti-plate was transferred to the washed […]-96 GF/B filter plate, 500 μL of washing buffer/well (50 mM Tris-HCl pH 7.4, 154 mM NaCl) was used to wash the […]-96 GF/B filter plate 9 times. Incubation was performed in 37° C. incubator for 3 minutes. 40 μL of ULTIMA GOLD scintillation solution (Perkin Elmer, Cat #77-16061) was added to each well, CPM (count per minute) value was read by a MicroBeta liquid scintillation counter (PerkinElmer).

Data set [2] has as its target human adenosine receptor A2A (Homo sapiens, UniProt P29274). The data set is described as follows: Adenosine receptor A2A cAMP test (LANCE Ultra cAMP, hADORA2A-HEK293 cells). In kind it is cell-based. The note with it: for hA2AAR agonist function: cAMP test; for EC50: stimulating production of cyclic AMP, hADORA2A-HEK293 cells. The source says:
Experimental reagents and consumables: DMEM/F12, G418, Penicillin-Streptomycin, Versene Solution, HEPES, Hank's Buffered Saline Solution, PBS (pH 7.4, 1×, sterile), FBS, BSA Stabilizer 7.5%, Rolipram, NECA were separately purchased from Gibico, Hyclone and Sigma. LANCE® Ultra cAMP kit (Eu-cAMP tracer, Ulight-anti-cAMP reagent, cAMP detection buffer) and hADORA2A-HEK293 cells were purchased from PerkinElmer Research Products (Boston, Mass.). All other reagents were of analytical grade and obtained from commercial sources. 384-well polypropylene microplate and 384-well solid white plate were purchased from Labcyte and Corning, respectively.
The cells stably expressing human adenosine receptor A2A (hADORA2A-HEK293 cells) were cultured in DMEM/F12 medium containing 10% FBS, 1×Penicillin-Streptomycin and 400 μg/ml G418 in a 37° C. and 5% CO2 environment. Before the experiment, the cells were digested with Versene solution, and the cells were collected by centrifugation at 200 g and room temperature for 5 minutes, and finally resuspended with assay buffer (Hank's buffered saline solution, containing 5 mM HEPES, 0.1% BSA stabilizer and 10 μM Rolipram, pH 7.4). The TECAN automated liquid handling workstation was used to dilute the compound in a 384-well polypropylene microplate with DMSO to 11 concentration points in a 3-fold gradient to prepare the compound source plate, in which the 11 concentration points of the compound were 10 mM, 3.33 mM, 1.11 mM., 0.3 7mM, 0.1 2 mM, 0.041 mM, 0.013 mM, 4.57×10^−3 mM, 1.52×10^−3 mM, 5×10^−4 mM and 1.7×10^−4 mM. The Echo Acoustic Liquid Handler (Labcyte) was used to transfer the test compound from the compound source plate to an assay plate, in which the transfer volume of the compound was 10 nl/well. The hADORA2A-HEK293 cell suspension was diluted with assay buffer to 30,000 cells/ml, and the cell suspension was transferred to the assay plate at a volume of 10 μl/well (300 cells/well). The assay plate was centrifuged at 150 g for 1 minute and pre-incubated at room temperature for 30 minutes. The Eu-cAMP tracer working solution (Eu-cAMP tracer 40 μl, cAMP detection buffer 1.96 ml) (5 μl/well) was added to the assay plate, and then the Ulight-anti-cAMP working solution (13 μl of Ulight-anti-cAMP reagent and 1.95 ml of cAMP detection buffer) (5 µl/well) was added to the assay plate. The assay plate was rotated at 150 g for 30 seconds and incubated at room temperature for 30 minutes. The EnVision multimode plate reader (PerkinElmer) was used determine the level of cyclic adenosine monophosphate in the final solution (λex=320 nm, λem=665 nm & 615 nm). The EC50 (nM) value of the compound interacting with the A2A adenosine receptor to stimulate the production of cyclic adenosine monophosphate was calculated and the A2A receptor agonist titer of the compound was expressed as the EC50 (nM) value.
In general terms: TR-FRET usually uses a lanthanide donor and a delayed reading to cut background.

The test system of data set [3] is blood-brain barrier. The data set is described as follows: Animal experiment of blood-brain barrier disruption (FITC-Dextran in brain of SD rats). In kind it is in vivo. The procedure: Fluorescein-labeled dextran FITC-Dextran (CAS: 60842-46-8) with molecular weight of 10,000 MW was purchased from TCI (Shanghai) Development Co., Ltd.; PBS solution and experimental animal SD rats were obtained from commercial sources.
FITC-Dextran solutions with six concentration gradients ([…], 10 μg/ml) were prepared with PBS, and standard curve of FITC-Dextran concentration was made by using microplate reader (λex=490 nm, λem=520 nm). Additionally, 10 mg/ml FITC-Dextran solution was prepared, Compound 5 was added to PBS solution to prepare 1 mg/ml solution. 1 ml of 10 mg/ml FITC-Dextran solution and 1 ml of 1 mg/ml Compound 5 in PBS solution were taken and mixed to prepare administration solvent. 1 ml of 10mg/ml FITC-Dextran solution and 1 ml of PBS solution were taken and mixed to prepare blank control solution. 6 SD rats were injected with 2 ml of the administration solvent via tail vein, respectively, while another 6 SD rats were injected with 2 ml of the blank control solution via tail vein. […] The solution to be tested was subjected to fluorescence detection by using the microplate reader (λex=490 nm, λem=520 nm).
The measured fluorescence value by the microplate reader was converted into the corresponding FITC-Dextran average concentration according to the obtained standard curve of FITC-Dextran concentration.

Where [4] appears, read: calculated from IC50 by Cheng and Prusoff equation, [S] 25 nM, Km […] nM.

Sequence of human adenosine receptor A2A (P29274 whole entry): as above

One may read the IC50 as the point on the concentration scale where inhibition reaches its midpoint. Read a high IC50 as lower potency. What is called Ki is a measure of affinity in units of concentration, obtained from inhibition or displacement. The EC50 is the concentration giving half of the maximal effect. A higher EC50 goes with a need for much substance. For orientation: melting point means the temperature of the solid-liquid transition. Consider `Nc1nc(N/N=C/c2ccc(OCc3ccccc3)c(OCc3ccccc3)c2)nc2c1ncn2[C@@H]1O[C@H](CO)[C@@H](O)[C@H]1O` [Compound 2, (2R,3R,4S,5R)-2-{6-amino-2-{2-[(E)-3,4-bis(benzyloxy)benzylidene]hydrazino}-9H-purin-9-yl}-5-(hydroxymethyl)tetrahydrofuran-3,4-diol], for which the melting point was 220 °C. The IC50 in data set [1] stood at 3.9 nM. Besides, the Ki in data set [1] (setting [4]) was 1.8 nM. In data set [2], the “hA2AAR agonist function” value is listed as “shown as hA2AAR agonists” and a half-maximal response (EC50) required 0.64 nM.
`Nc1nc(N/N=C/c2ccc(OCc3ccc(F)cc3)cc2)nc2c1ncn2[C@@H]1O[C@H](CO)[C@@H](O)[C@H]1O` [Compound 5, (2R,3R,4S,5R)-2-{6-amino-2-{2-{(E)-4-[(4-fluorobenzyl)oxy]benzylidene}hydrazino}-9H-purin-9-yl}-5-(hydroxymethyl)tetrahydrofuran-3,4-diol] came in with a melting point of 144 °C. The IC50 in data set [1] came out at 11.7 nM. Also, the Ki in data set [1] (setting [4]) is 5.5 nM. Besides, in data set [2], the “hA2AAR agonist function” value was “shown as hA2AAR agonists” and the EC50 came to 4.1 nM. Moreover, in data set [3] (FITC-Dextran co-injected), the “opening of the blood-brain barrier” value is recorded as “could open the blood-brain barrier”. Moreover, the “FITC-Dextran concentration in brain” value in data set [3] (tail vein injection with FITC-Dextran (10,000 MW), brain taken after 30 minutes, average) came to 0.11 µg/mL.
In turn, `CCN(CC)c1ccc(/C=N/Nc2nc(N)c3ncn([C@@H]4O[C@H](CO)[C@@H](O)[C@H]4O)c3n2)cc1` [Compound 15, (2R,3R,4S,5R)-2-{6-amino-2-{2-[(E)-4-(diethylamino)benzylidene]hydrazino}-9H-purin-9-yl}-5-(hydroxymethyl)tetrahydrofuran-3,4-diol] registered a melting point of 164 °C. In addition, in data set [1], the half-inhibitory concentration (IC50) is 13.7 nM and the Ki stood at 6.4 nM. Further, in data set [2], the “hA2AAR agonist function” value is given as “shown as hA2AAR agonists” and the concentration giving a half-maximal response (EC50) was 17.9 nM.
In turn, `N#Cc1ccc(/C=N/Nc2nc(N)c3ncn([C@@H]4O[C@H](CO)C(O)C4O)c3n2)cc1` (stereo partly drawn) [Compound 20] had a melting point of 276 °C. Besides, in data set [1], the IC50 turned out to be 18.1 nM and the Ki came to 8.5 nM. In data set [2], this compound returned an EC50 of 15.3 nM.
